# Laboratory results taken from ChEMBL document CHEMBL4052667 (Bioorg Med Chem, 2017).
# Key:
# [1] = Antiproliferative activity against human MCF10A cells at less than 50 uM after 72 hrs by MTT assay relative to control; assay type: cell-based, MCF-10A
# Histone deacetylase 1 = Histone deacetylase 1 (Homo sapiens, UniProt Q13547); assay: Inhibition of HDAC1 (unknown origin) using acetylated peptide substrate preincubated for 15 mins followed by substrate addition measured after 60 mins by fluorescence analysis
# [2] = target: Poly [ADP-ribose] polymerase 1 (Homo sapiens, UniProt P09874); assay: Inhibition of recombinant full length human N-terminal GST-tagged PARP1 expressed in baculovirus infected Sf9 cells using biotinylated substrate after 1 hr by UV/Vis spectrophotometric analysis
# [3] = target: Poly [ADP-ribose] polymerase 2 (Homo sapiens, UniProt Q9UGN5); assay: Inhibition of recombinant human N-terminal GST-tagged PARP2 (2 to 583 residues) expressed in baculovirus infected Sf9 cells using biotinylated substrate after 1 hr by UV/Vis spectrophotometric analysis
# MCF7 = assay: Antiproliferative activity against human MCF7 cells after 72 hrs by MTT assay; assay type: functional, cell-based; settings: MCF7, 72 h
# MDA-MB-231 [4] = assay: Antiproliferative activity against human MDA-MB-231 cells after 5 days by MTT assay; assay type: functional, cell-based; settings: MDA-MB-231, 120 h
# T47D = assay: Antiproliferative activity against human T47D cells after 72 hrs by MTT assay; assay type: functional, cell-based
# U-937 = assay: Antiproliferative activity against human U937 cells after 72 hrs by MTT assay; assay type: functional, cell-based; settings: U-937, 72 h
# MDA-MB-231 [5] = assay: Antiproliferative activity against human MDA-MB-231 cells after 72 hrs by MTT assay; assay type: functional, cell-based; settings: MDA-MB-231, 72 h
# HCC827 = assay: Antiproliferative activity against human HCC827 cells after 72 hrs by MTT assay; assay type: functional, cell-based; settings: HCC827, 72 h
# K562 = assay: Antiproliferative activity against human K562 cells after 72 hrs by MTT assay; assay type: functional, cell-based; settings: K562, 72 h
# HeLa = assay: Antiproliferative activity against human HeLa cells after 72 hrs by MTT assay; assay type: functional, cell-based
# MCF-10A = assay: Antiproliferative activity against human MCF10A cells after 72 hrs by MTT assay; assay type: cell-based
# [6] = target: T1, Protein deacetylase HDAC6 (Homo sapiens, UniProt Q9UBN7); assay: Inhibition of HDAC6 (unknown origin) using acetylated peptide substrate preincubated for 15 mins followed by substrate addition measured after 60 mins by fluorescence analysis
# T1 sequence (Q9UBN7 whole entry): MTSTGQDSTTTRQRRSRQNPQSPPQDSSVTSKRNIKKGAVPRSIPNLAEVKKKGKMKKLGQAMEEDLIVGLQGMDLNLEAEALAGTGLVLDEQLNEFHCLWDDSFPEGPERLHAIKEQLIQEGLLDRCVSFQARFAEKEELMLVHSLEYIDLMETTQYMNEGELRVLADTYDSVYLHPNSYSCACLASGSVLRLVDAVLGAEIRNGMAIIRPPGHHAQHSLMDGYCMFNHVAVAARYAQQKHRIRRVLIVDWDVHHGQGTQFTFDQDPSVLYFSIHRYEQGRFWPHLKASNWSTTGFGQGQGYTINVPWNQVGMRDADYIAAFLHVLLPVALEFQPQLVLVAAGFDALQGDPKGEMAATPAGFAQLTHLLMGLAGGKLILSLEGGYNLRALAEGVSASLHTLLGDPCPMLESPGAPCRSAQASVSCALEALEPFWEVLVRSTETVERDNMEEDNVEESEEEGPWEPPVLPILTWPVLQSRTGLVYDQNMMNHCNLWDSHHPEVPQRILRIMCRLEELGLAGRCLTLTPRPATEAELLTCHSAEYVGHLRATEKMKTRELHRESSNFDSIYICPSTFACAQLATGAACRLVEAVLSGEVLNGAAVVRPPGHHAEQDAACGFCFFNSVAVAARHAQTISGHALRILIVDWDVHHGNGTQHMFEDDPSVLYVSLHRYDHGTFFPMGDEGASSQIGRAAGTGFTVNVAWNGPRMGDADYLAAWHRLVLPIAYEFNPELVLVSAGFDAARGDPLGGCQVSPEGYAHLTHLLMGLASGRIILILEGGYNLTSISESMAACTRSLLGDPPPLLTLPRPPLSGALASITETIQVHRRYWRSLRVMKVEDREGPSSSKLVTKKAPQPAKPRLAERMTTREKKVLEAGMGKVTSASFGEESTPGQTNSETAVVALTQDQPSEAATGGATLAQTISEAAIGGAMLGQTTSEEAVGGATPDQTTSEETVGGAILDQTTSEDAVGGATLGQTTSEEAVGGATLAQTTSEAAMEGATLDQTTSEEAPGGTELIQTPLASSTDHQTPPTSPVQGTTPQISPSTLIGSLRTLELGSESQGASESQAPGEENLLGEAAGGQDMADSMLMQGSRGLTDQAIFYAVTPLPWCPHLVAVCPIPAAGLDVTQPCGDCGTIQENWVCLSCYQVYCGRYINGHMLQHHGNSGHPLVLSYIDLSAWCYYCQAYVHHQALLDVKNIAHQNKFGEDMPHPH
# Raji = assay: Antiproliferative activity against human Raji cells after 3 days by MTT assay; assay type: functional, cell-based; settings: 72 h
# HCC1937 = assay: Antiproliferative activity against human HCC1937 cells after 3 days by MTT assay; assay type: functional, cell-based; settings: HCC1937, 72 h
# Homo sapiens = species on record: Homo sapiens; assay: Selectivity ratio of IC50 for HDAC1 (unknown origin) to IC50 for HDAC6 (unknown origin)
# Histone deacetylase 1, sequence (Q13547 whole entry): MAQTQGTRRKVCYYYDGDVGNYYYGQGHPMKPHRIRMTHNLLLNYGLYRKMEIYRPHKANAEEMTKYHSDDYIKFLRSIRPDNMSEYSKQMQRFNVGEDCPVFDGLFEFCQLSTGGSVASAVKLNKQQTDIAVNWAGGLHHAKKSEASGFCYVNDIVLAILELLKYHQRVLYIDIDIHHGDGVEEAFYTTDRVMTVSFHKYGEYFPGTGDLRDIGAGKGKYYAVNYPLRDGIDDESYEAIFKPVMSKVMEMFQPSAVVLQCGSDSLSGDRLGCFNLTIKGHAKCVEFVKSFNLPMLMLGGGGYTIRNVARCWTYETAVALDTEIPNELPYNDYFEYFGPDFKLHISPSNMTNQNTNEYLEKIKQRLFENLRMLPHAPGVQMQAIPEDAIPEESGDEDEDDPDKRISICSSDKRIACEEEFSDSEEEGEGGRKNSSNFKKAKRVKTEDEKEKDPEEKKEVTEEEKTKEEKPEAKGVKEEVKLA
# Poly [ADP-ribose] polymerase 2, sequence (Q9UGN5 whole entry, the tested form may be a part): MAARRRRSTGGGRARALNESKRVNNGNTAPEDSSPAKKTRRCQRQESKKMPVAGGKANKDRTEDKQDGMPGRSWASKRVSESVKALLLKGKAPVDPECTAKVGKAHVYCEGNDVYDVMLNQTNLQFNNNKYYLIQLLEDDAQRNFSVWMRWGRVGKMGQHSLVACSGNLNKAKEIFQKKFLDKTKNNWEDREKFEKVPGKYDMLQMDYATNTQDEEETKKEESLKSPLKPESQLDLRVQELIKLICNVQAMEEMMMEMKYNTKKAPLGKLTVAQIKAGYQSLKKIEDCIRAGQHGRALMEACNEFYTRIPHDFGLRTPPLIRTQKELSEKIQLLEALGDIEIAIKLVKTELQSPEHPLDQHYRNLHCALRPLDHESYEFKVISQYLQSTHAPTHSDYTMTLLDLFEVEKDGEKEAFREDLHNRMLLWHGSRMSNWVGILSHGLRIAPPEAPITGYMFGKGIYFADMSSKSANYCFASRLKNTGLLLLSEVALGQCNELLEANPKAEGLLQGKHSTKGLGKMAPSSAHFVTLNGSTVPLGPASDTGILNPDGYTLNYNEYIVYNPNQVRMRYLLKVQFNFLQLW
# Poly [ADP-ribose] polymerase 1, sequence (P09874 whole entry, the tested form may be a part): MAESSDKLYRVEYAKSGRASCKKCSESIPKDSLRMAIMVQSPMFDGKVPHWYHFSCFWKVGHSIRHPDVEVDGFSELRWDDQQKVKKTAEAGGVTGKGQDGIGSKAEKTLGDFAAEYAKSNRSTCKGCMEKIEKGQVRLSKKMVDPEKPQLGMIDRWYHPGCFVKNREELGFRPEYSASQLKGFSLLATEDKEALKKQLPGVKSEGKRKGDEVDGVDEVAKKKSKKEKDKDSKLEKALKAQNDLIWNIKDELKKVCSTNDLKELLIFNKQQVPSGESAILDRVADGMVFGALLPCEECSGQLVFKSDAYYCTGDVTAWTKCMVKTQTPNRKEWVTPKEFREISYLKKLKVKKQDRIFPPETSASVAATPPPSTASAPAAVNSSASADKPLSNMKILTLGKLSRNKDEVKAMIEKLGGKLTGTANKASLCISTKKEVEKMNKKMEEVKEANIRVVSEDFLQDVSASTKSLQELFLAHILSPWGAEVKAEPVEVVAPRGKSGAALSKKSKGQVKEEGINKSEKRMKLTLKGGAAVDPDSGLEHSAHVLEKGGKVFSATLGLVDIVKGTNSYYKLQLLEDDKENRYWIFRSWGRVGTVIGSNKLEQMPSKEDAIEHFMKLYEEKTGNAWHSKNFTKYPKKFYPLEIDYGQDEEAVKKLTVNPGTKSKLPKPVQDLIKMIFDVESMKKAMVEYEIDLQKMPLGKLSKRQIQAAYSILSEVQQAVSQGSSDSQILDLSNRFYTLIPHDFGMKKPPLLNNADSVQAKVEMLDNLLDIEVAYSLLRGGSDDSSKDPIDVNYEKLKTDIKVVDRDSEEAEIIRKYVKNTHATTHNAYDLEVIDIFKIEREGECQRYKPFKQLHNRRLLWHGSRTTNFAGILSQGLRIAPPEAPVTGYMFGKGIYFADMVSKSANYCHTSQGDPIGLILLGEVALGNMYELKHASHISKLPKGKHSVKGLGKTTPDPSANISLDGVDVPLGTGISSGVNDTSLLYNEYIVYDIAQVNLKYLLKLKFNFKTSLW
IC50 (Histone deacetylase 1),IC50 [2],IC50 [3],IC50 (MCF7),IC50 (MDA-MB-231 [4]),IC50 (T47D),IC50 (U-937),IC50 (MDA-MB-231 [5]),IC50 (HCC827),IC50 (K562),IC50 (HeLa),IC50 [6],IC50 (Raji),IC50 (HCC1937),Ratio IC50 (Homo sapiens),Structure (SMILES),inhibition at 72 h [1],IC50 (MCF-10A)
0.912 µM,0.0204 µM,0.0491 µM,41.8 µM,35.4 µM,> 50 µM,31 µM,57.9 µM,32.1 µM,> 50 µM,> 50 µM,0.129 µM,–,–,–,O=C(Cc1ccc(CN2CCN(C(=O)c3cc(Cc4n[nH]c(=O)c5ccccc45)ccc3F)CC2)cc1)NO,20 to 30%,> 50 µM
–,–,–,35.2 µM,7.92 µM,> 50 µM,21.8 µM,39.5 µM,> 50 µM,> 50 µM,> 50 µM,–,> 50 µM,8.65 µM,–,O=C(c1cc(Cc2n[nH]c(=O)c3ccccc23)ccc1F)N1CCN(C(=O)C2CC2)CC1 [OLAPARIB],–,> 50 µM
0.503 µM,0.00616 µM,0.0315 µM,24.1 µM,18.3 µM,> 50 µM,20.5 µM,33.2 µM,24.1 µM,43.3 µM,> 50 µM,0.0167 µM,–,–,30,O=C(NO)c1ccc(CN2CCN(C(=O)c3cc(Cc4n[nH]c(=O)c5ccccc45)ccc3F)CC2)cc1,20 to 30%,> 50 µM
